Here are results for 19 compounds from publication PMC10628895, “Conformationally Selective 2-Aminotetralin Ligands Targeting the alpha2A- and alpha2C-Adrenergic Receptors” (ACS Chemical Neuroscience, 2023).

The target in data set [1] is T1, human wild-type α2AR (Homo sapiens, UniProt P08913).
T1 sequence (P08913 1-465): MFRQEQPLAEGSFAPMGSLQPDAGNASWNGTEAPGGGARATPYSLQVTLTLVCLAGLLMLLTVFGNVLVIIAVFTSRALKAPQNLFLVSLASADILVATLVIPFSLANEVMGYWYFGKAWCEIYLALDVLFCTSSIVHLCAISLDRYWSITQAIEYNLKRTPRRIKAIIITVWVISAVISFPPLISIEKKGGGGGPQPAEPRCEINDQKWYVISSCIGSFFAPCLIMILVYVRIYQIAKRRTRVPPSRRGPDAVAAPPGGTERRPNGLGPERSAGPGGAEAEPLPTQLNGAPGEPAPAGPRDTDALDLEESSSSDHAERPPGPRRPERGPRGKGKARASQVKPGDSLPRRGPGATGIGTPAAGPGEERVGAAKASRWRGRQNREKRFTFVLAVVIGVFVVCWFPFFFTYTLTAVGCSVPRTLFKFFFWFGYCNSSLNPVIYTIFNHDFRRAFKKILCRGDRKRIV
Put plainly: Radioligand binding with [3H]rauwolscine (competition and saturation), membranes of transfected HEK293 cells. Also on record: host or cells: mouse connective-tissue cells stably expressing the receptor.

In data set [2] the target is T2, human wild-type α2CR (Homo sapiens, UniProt P18825).
T2 sequence (P18825 1-462): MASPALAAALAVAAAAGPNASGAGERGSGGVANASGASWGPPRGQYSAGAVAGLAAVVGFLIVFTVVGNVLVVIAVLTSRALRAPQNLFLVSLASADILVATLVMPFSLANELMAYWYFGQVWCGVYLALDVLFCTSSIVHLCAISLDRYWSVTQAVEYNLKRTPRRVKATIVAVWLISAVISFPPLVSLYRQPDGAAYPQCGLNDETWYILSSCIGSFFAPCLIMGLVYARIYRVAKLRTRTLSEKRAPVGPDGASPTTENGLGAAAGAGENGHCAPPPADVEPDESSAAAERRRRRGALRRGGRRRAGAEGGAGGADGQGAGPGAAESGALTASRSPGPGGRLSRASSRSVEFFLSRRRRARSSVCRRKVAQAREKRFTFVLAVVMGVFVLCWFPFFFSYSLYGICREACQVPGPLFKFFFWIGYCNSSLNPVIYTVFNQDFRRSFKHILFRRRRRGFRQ
The data set is described as above. Also noted: host or cells: mouse connective-tissue cells stably expressing the receptor.

In data set [3] the target is T2, human wild-type α2CR. The description is as above. Also noted: host or cells: mouse connective-tissue cells stably expressing the receptor. Particulars: [3H]rauwolscine competition, mean ± SD, read-out: Affinity (Ki ± SD; nM) α2CR. As to the method: Cells were grown in 10-cm plates and allowed to reach log growth phase (equivalent to about 70–90% confluency) before transfection. A transfection cocktail containing 3 mL of Opti-MEM (Gibco, Waltham, MA), 10 μg of cDNA, and 30 μL of linear polyethyleneimine “max” (molecular weight ∼ 40 000 g/mol, Polysciences Inc., Warrington, PA) was added to each plate and then incubated with an additional 3 mL of supplemented MEM for 48 h. Human wild-type α2-adrenergic GPCR clones, encoded in a pcDNA3.1(+) vector, were obtained from the cDNA Resource Center (Bloomsburg, PA). Cells were transiently transfected to express the α2AR or α2CR, and membranes were isolated for use in radioligand binding assays.
Cell membrane isolates were obtained following transfection procedure via a series of three 10-min, 12000g centrifugations homogenized via a tissue grinder. Saturation and competitive radioligand displacement assays conducted in 96-well assay plates were performed using membrane isolates. The bicinchoninic acid (BCA) protein assay (Thermo Scientific) kit was used to quantify protein expression.
Each concentration was assessed in quadruplicate, and each competitive binding assay was performed in at least three distinct replicates. Nonspecific binding was determined using 10 μM clozapine. Data were analyzed using the nonlinear regression function “One-site-Fit Ki” in Prism, wherein the Ki was calculated from the experimentally derived IC50 via the Cheng–Prusoff equation[58] [drawing 1]

In data set [4] the target is T1, human wild-type α2AR. Put plainly: cAMP accumulation, LANCE Ultra cAMP TR-FRET immunoassay, cells stably expressing α2AR. Particulars: for functional activity at the α2AR (in words): cAMP formation.
Data set [5] deals with T2, human wild-type α2CR. Description: cAMP accumulation, LANCE Ultra cAMP TR-FRET immunoassay, cells stably expressing α2CR. Particulars: for functional activity at the α2CR (in words): cAMP formation.
In data set [6] the test system is mouse models of autism spectrum disorder (ASD). Also noted: method as in PMID 32566916, PMID 26011730, PMID 36473166. The conditions noted are these: orally active; cited from earlier work.
Data set [7] concerns rodents. The conditions noted are these: cited from earlier work.
The mark [8] stands for this setting: [3H]rauwolscine competition, HEK293 membranes, mean ± SD, read-out: Affinity (Ki ± SD; nM) α2AR.
The mark [9] stands for this setting: read-out: Emax α2AR, percent maximum response normalized to lofexidine, mean ± SD, NC = no significant change from forskolin-established baseline signaling.

Like-named read-outs stand apart in the source and are kept apart here.

With `CN(C)[C@@H]1CCc2c(cccc2-c2ccccc2)C1` [(R)-1], the Ki in data set [1] amounted to 320 ± 40 nM; in data set [2], 500 ± 75 nM.

For the compound `CN(C)[C@@H]1CCc2c(cccc2-c2ccccc2F)C1` [(R)-2, (R)-5-(2-Fluorophenyl)-N,N-dimethyl-1,2,3,4-tetrahydronaphthalen-2-amine], the Ki in data set [1] stood at 2500 ± 810 nM; in data set [2], 680 ± 120 nM.

Take `CN(C)[C@@H]1CCc2c(cccc2-c2ccccc2Cl)C1` [(R)-3]: the Ki turned out to be 490 ± 65 nM in data set [1] and 500 ± 86 nM in data set [2].

As to `Fc1ccccc1-c1cccc2c1CC[C@@H](N1CCCC1)C2` [(R)-4, (R)-1-(5-(2-Fluorophenyl)-1,2,3,4-tetrahydronaphthalen-2-yl)pyrrolidine], the values for the Ki in data set [1] (setting [8]) and in data set [3] were 1000 ± 170 nM and 1500 ± 270 nM, respectively.

As for `CCCN(CCC)[C@@H]1CCc2c(cccc2-c2ccccc2)C1` [(R)-5], the Ki stood at 190 ± 30 nM in data set [1] and 580 ± 54 nM in data set [2].

`CCCN(CCC)[C@@H]1CCc2c(cccc2-c2ccccc2Cl)C1` [(R)-6]: the Ki is 94 ± 26 nM in data set [1] and 340 ± 95 nM in data set [2].

As to `CN(C)[C@@H]1CCc2c(cccc2-c2ccco2)C1` [(R)-8], the inhibitory constant (Ki) in data set [1] came to 1300 ± 330 nM; in data set [2], 460 ± 72 nM.

As to `CN(C)[C@@H]1CCc2c(cccc2-c2cccn2C)C1` [(R)-10], the Ki in data set [1] came to 130 ± 33 nM; in data set [2], 310 ± 39 nM.

With `CN(C)[C@H]1CCc2c(cccc2-c2ccccc2)C1` [(S)-1], in data set [1], the Ki was 6.9 ± 1.8 nM. For the same compound, the inhibitory constant (Ki) in data set [2] stood at 35 ± 4.6 nM. Further, in data set [4], the EC50 is 1.4 ± 0.23 nM and the “functional activity at the α2AR (in words)” value was “agonist activity”. For the same compound, the “Emax α2AR” value in data set [4] (percent maximum response normalized to lofexidine, mean ± SD, NC = no significant change from forskolin-established baseline signaling, listed as 1 (5-PAT)) was 24 ± 4.0%. The Emax in data set [4] (setting [9]) was approximately 25%. In data set [5], the IC50 is 370 ± 1.9 nM and the “functional activity at the α2CR (in words)” value was “inverse agonism”.

Consider `CN(C)[C@H]1CCc2c(cccc2-c2ccccc2F)C1` [(S)-2, (2S)-5-(2′-fluorophenyl)-N,N-dimethyl-1,2,3,4-tetrahydronaphthalen-2-amine], for which the “effect in mouse models of autism spectrum disorder (in words)” value in data set [6] is “improves repetitive behaviors, social behaviors, anxiety behaviors, and ameliorates seizures”. For the same compound, the “effect on locomotor activity (in words)” value in data set [7] is “did not impact locomotor activity”. The affinity in data set [1] corresponds to a Ki of 3.5 ± 0.97 nM. In data set [2], this compound registered a Ki of 19 ± 4.6 nM. This compound returned an EC50 in data set [4] of 0.55 ± 0.15 nM. The Emax in data set [4] (setting [9]) was 45 ± 1.9%. Moreover, in data set [5], 79 ± 1.7 nM corresponded to half-maximal inhibition (IC50) and the “functional activity at the α2CR (in words)” value is recorded as “inverse agonists”.

`CN(C)[C@H]1CCc2c(cccc2-c2ccccc2Cl)C1` [(S)-3]: the Ki turned out to be 5.1 ± 0.52 nM in data set [1] and 17 ± 4.1 nM in data set [2]. Also, in data set [4], a half-maximal effect (EC50) was put at 1.3 ± 0.18 nM. Besides, the Emax in data set [4] (setting [9]) is 47 ± 2.9%. Also, the midpoint of inhibition in data set [5], the IC50, lay at 130 ± 2.4 nM. The “functional activity at the α2CR (in words)” value in data set [5] is reported as “inverse agonists”.

Take `Fc1ccccc1-c1cccc2c1CC[C@H](N1CCCC1)C2` [(S)-4, (S)-1-(5-(2-Fluorophenyl)-1,2,3,4-tetrahydronaphthalen-2-yl)pyrrolidine]: in data set [1] (setting [8]), the Ki is 5.7 ± 1.4 nM. Besides, the Ki in data set [3] amounted to 5.2 ± 0.3 nM. The same compound came in with an EC50 in data set [4] of 1.1 ± 0.16 nM. In addition, the Emax in data set [4] (read-out: Emax α2AR) was 46 ± 3%. In addition, in data set [5], 48 ± 1.8 nM corresponded to half-maximal inhibition (IC50) and the “functional activity at the α2CR (in words)” value is reported as “inverse agonists”. Besides, in data set [5] (inverse agonist potency), the “fold higher potency than 5-PAT at the α2CR” value is listed as “about 9 fold”, the “fold higher potency than CPT at the α2CR” value is on record as approximately 3 fold and the “fold higher potency than FPT at the α2CR” value was “about 2 fold”.

On to `CCCN(CCC)[C@H]1CCc2c(cccc2-c2ccccc2)C1` [(S)-5], for which the figures for the inhibition constant (Ki) in data set [1] and in data set [2] were 180 ± 19 nM and 370 ± 14 nM, respectively.

Consider `CCCN(CCC)[C@H]1CCc2c(cccc2-c2ccccc2Cl)C1` [(S)-6], for which the values for the Ki in data set [1] and in data set [2] were 67 ± 11 nM and 280 ± 20 nM, respectively.

In the case of `CN(C)[C@H]1CCc2c(cccc2-c2cccc3ccccc23)C1` [(S)-7], the Ki in data set [1] was 27 ± 6.3 nM. Besides, in data set [2], the Ki stood at 180 ± 38 nM. Also, in data set [4], the EC50 was 82 ± 8.3 nM and the “functional activity at the α2AR (in words)” value is given as “agonist activity”. Further, the “fold less potent than FPT at the α2AR” value in data set [4] (agonist potency) is recorded as 150 fold. The Emax in data set [4] (setting [9]) was 14 ± 4.3%. Besides, in data set [5], 260 ± 44 nM corresponded to half-maximal inhibition (IC50) and the “functional activity at the α2CR (in words)” value is reported as “inverse agonism”. In data set [5] (inverse agonist efficacy), the “fold less efficacious than the other 5-SATs at the α2CR” value is on record as “roughly 2 fold”.

For `CN(C)[C@H]1CCc2c(cccc2-c2ccco2)C1` [(S)-8], the Ki in data set [1] was determined as 59 ± 1.4 nM; in data set [2] it was 150 ± 3.5 nM.

For the compound `CN(C)[C@H]1CCc2c(cccc2-c2cccs2)C1` [(S)-9], in data set [1], the affinity, expressed as Ki, was 6.2 ± 1.5 nM and the “fold higher affinity compared to the FAT compound at α2AR” value is given as 5–10 fold. The same compound registered a Ki in data set [2] of 48 ± 0.57 nM. Moreover, the “functional activity at the α2AR (in words)” value in data set [4] is “no significant change over baseline”. The “functional activity at the α2CR (in words)” value in data set [5] was “neutral antagonist”.

Take `CN(C)[C@H]1CCc2c(cccc2-c2cccn2C)C1` [(S)-10]: in data set [1], affinity was put at a Ki of 12 ± 0.41 nM and the “fold higher affinity compared to the FAT compound at α2AR” value is 5–10 fold. Also, affinity in data set [2] was put at a Ki of 50 ± 4.1 nM. Besides, in data set [4], the IC50 amounted to 11 ± 0.26 nM and the “functional activity at the α2AR (in words)” value is recorded as “inverse agonist”. In data set [5], this compound registered an IC50 of 92 ± 5.9 nM.

With `CC(Oc1c(Cl)cccc1Cl)C1=NCCN1` (centres unmarked) [Lofexidine, reference compound], in data set [3], the Ki came out at 22 ± 4.6 nM. Also, in data set [5], the response was half-maximal at 4.9 ± 1.2 nM (EC50) and the “functional activity at the α2CR (in words)” value is given as “agonist”. Moreover, the Emax in data set [5] (read-out: Emax α2CR) worked out at 100 ± 3.4%.
